Data reported in ChEMBL document CHEMBL4507268 (2021).

Key:
Details in all cases: Compound concentration 1.0 uM
[1] = biological target: T1, Serine/threonine-protein kinase BRSK1 (Homo sapiens) (UniProt Q8TDC3)
T1 sequence (whole entry): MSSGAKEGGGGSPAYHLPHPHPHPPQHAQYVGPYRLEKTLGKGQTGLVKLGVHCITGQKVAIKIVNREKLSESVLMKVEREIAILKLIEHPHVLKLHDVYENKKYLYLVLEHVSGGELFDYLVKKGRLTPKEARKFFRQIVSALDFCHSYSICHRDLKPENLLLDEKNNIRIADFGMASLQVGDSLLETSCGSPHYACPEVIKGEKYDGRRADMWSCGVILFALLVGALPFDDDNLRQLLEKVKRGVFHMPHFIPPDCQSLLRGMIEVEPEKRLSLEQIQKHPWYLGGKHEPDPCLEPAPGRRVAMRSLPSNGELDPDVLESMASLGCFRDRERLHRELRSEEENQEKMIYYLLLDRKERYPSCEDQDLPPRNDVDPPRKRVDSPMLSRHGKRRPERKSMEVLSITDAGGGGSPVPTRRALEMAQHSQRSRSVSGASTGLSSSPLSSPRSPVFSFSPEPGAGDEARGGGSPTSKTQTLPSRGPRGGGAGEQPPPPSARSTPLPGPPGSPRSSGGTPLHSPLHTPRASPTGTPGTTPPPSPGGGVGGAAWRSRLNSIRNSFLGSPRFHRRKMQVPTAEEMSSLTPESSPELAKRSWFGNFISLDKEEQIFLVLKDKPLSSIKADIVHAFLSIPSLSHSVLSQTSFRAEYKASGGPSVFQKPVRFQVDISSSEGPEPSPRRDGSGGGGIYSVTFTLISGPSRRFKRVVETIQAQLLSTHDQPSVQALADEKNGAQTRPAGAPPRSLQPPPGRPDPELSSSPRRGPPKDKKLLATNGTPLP

[2] = biological target: Calcium/calmodulin-dependent protein kinase kinase 1 (Homo sapiens) (UniProt Q8N5S9)
[3] = biological target: Phosphorylase b kinase gamma catalytic chain, skeletal muscle/heart isoform (Homo sapiens) (UniProt Q16816)
[4] = biological target: T2, Tyrosine-protein kinase Tec (Homo sapiens) (UniProt P42680)
T2 sequence (whole entry): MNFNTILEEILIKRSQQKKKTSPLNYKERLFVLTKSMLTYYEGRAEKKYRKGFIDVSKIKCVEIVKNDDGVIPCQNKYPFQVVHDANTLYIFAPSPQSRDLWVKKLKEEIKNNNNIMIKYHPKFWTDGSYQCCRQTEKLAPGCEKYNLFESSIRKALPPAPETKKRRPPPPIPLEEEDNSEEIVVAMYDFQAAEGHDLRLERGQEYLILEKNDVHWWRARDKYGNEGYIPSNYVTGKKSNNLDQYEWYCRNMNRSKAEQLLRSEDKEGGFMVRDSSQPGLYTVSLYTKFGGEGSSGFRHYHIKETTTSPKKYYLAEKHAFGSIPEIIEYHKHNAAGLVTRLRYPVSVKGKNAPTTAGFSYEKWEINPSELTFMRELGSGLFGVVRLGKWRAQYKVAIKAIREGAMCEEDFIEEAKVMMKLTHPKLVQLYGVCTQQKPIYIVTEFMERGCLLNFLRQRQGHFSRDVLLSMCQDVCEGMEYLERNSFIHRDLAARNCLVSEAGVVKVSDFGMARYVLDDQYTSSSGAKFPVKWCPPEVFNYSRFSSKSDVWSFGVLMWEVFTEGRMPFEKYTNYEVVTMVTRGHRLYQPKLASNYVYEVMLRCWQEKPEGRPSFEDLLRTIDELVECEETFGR

[5] = biological target: Serine/threonine-protein kinase VRK2 (Homo sapiens) (UniProt Q86Y07)
[6] = biological target: Non-receptor tyrosine-protein kinase TYK2 (Homo sapiens) (UniProt P29597)
[7] = biological target: Serine/threonine-protein kinase 16 (Homo sapiens) (UniProt O75716)
[8] = biological target: T3, Tyrosine-protein kinase receptor TYRO3 (Homo sapiens) (UniProt Q06418)
T3 sequence (whole entry): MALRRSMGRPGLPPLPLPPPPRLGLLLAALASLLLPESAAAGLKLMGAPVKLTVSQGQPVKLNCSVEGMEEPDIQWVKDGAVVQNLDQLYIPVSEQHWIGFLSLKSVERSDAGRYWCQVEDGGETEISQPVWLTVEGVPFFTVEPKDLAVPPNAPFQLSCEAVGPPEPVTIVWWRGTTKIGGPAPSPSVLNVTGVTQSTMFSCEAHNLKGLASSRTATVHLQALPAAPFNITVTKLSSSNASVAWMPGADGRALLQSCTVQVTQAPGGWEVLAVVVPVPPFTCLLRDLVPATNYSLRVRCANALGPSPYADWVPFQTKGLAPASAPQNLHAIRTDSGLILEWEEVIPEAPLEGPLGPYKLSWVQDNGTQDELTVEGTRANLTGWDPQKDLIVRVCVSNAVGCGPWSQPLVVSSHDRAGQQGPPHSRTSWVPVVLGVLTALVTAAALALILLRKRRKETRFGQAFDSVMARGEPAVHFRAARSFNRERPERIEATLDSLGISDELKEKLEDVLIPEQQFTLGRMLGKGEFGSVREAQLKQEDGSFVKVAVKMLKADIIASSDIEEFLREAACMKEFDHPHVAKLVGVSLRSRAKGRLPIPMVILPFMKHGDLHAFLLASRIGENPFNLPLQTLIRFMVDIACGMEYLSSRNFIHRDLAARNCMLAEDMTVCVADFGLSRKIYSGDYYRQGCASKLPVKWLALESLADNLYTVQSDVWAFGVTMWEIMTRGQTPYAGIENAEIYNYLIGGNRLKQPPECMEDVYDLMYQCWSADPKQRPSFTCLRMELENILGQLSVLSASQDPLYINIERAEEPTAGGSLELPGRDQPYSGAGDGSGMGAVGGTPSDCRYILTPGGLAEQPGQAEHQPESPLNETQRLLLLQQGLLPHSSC

[9] = biological target: Myosin light chain kinase 2, skeletal/cardiac muscle (Homo sapiens) (UniProt Q9H1R3)

Measured: % residual kinase activity

Sequence of Serine/threonine-protein kinase 16 (Homo sapiens) (O75716 whole entry): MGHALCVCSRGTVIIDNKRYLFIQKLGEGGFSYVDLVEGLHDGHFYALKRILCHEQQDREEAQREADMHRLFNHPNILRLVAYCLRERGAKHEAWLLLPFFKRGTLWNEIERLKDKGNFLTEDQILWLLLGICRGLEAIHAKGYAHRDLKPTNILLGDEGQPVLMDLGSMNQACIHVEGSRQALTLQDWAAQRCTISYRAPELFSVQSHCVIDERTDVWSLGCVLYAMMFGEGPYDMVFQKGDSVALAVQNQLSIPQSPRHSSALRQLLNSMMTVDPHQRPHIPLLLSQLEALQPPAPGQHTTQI
Sequence of Calcium/calmodulin-dependent protein kinase kinase 1 (Homo sapiens) (Q8N5S9 whole entry, looked up, canonical isoform): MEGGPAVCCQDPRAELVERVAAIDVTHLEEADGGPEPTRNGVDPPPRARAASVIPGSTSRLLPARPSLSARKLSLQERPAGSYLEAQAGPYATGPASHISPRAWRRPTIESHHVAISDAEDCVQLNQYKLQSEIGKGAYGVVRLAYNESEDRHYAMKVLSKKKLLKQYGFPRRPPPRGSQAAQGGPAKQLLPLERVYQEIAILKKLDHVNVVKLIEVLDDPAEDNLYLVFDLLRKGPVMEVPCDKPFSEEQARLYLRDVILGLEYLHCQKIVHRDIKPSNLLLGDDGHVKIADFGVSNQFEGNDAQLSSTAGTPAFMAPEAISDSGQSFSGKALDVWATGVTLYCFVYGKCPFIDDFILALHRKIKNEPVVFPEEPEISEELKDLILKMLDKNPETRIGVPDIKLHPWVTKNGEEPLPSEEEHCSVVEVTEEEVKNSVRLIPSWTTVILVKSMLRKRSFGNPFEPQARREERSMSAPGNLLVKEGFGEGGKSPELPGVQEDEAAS
Sequence of Serine/threonine-protein kinase VRK2 (Homo sapiens) (Q86Y07 whole entry): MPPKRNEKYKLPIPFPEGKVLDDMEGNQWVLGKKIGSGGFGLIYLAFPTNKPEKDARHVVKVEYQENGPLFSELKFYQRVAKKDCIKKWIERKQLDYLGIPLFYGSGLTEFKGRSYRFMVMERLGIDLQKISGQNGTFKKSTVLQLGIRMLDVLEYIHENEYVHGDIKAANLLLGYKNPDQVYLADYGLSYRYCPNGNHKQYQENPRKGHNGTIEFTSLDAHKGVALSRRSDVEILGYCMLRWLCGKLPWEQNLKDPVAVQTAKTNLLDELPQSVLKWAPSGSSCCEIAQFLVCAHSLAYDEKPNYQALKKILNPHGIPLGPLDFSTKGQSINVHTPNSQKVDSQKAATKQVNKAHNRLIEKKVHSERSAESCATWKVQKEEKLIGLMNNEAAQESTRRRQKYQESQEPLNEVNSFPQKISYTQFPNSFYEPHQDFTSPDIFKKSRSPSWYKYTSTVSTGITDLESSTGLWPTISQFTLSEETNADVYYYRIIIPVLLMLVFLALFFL
Sequence of Myosin light chain kinase 2, skeletal/cardiac muscle (Homo sapiens) (Q9H1R3 whole entry): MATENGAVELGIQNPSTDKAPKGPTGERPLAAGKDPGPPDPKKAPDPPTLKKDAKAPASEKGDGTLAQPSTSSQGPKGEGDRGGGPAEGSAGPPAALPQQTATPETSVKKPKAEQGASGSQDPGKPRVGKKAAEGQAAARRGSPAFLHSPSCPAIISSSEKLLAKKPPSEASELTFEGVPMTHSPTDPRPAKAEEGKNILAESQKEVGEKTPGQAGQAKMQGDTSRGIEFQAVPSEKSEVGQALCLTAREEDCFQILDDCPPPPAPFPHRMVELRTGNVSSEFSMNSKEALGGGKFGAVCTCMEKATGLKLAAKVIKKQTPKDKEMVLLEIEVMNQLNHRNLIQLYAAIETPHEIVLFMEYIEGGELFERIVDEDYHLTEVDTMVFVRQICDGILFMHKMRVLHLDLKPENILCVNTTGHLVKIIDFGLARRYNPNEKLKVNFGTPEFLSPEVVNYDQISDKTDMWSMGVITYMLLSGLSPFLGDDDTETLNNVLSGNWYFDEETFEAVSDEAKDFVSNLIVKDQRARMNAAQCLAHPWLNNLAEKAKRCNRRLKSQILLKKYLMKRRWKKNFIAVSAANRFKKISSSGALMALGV
Sequence of Phosphorylase b kinase gamma catalytic chain, skeletal muscle/heart isoform (Homo sapiens) (Q16816 whole entry, looked up, canonical isoform): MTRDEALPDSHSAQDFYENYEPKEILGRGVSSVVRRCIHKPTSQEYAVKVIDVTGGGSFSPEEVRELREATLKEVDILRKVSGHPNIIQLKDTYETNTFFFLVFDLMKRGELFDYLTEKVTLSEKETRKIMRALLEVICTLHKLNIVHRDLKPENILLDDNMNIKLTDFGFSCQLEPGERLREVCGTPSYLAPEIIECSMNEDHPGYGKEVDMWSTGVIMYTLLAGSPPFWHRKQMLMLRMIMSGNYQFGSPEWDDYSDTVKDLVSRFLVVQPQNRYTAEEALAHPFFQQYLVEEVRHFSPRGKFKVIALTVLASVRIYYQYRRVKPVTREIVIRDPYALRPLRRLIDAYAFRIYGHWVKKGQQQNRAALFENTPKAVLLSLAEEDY
Sequence of Non-receptor tyrosine-protein kinase TYK2 (Homo sapiens) (P29597 whole entry): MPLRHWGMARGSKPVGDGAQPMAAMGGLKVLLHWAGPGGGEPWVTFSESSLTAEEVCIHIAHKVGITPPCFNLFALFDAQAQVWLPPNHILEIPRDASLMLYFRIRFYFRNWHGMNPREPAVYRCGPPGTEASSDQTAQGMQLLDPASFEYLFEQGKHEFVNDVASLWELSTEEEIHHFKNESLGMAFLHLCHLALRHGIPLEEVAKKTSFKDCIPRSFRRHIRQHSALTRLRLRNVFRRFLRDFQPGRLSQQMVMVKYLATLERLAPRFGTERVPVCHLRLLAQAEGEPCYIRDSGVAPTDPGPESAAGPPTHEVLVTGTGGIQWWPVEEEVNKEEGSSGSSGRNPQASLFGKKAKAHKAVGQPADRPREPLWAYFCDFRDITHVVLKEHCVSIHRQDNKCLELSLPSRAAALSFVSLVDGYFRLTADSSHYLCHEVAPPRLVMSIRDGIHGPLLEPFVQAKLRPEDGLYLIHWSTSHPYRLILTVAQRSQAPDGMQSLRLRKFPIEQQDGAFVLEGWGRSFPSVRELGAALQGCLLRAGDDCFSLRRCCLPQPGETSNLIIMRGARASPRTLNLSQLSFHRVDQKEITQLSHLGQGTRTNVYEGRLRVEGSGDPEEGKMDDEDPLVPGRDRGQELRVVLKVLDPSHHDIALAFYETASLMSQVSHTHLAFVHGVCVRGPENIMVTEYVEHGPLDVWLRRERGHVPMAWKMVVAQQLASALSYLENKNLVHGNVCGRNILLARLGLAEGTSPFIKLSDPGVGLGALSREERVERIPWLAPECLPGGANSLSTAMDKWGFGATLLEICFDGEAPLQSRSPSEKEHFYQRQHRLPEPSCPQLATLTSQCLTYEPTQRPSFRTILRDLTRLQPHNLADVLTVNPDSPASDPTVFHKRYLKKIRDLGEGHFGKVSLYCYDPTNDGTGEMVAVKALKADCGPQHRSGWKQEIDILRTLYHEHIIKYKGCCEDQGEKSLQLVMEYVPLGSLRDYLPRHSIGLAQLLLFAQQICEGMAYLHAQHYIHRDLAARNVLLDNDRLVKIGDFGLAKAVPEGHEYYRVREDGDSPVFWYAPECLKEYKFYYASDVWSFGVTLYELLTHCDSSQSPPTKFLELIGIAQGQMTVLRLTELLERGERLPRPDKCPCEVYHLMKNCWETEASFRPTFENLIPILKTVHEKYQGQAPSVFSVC

CN1CCN(c2cnc3c(C4CCN(C(=O)c5ccc(OC(F)(F)F)cc5N)CC4)ncnc3c2)CC1 [BAY-885]
inactive: [1] 104% | [2] 102% | [3] 103% | [4] 112% | [5] 106% | [6] 110% | [7] 99% | [8] 100% | [9] 93%
